Measured values reported in ChEMBL document CHEMBL4000252, “Discovery of N-(2-aminoethyl)-N-benzyloxyphenyl benzamides: New potent Trypanosoma brucei inhibitors” (Bioorg Med Chem, 2017).
The source made the active and inactive calls. The rule behind the calls is not given here.

Tests used:
[1] = system: Trypanosoma brucei brucei; experiment: Antiparasitic activity against Trypanosoma brucei brucei BF427 assessed as growth inhibition after 48 hrs by Alamar blue assay; format: functional; details: BF427, 48 h
[2] = system: L6; experiment: Cytotoxicity against rat L6 cells assessed as growth inhibition after 48 hrs by Alamar blue assay; format: cell-based; details: l6, 48 h
[3] = system: Trypanosoma brucei brucei; experiment: Antiparasitic activity against Trypanosoma brucei brucei TREU667 infected in mouse assessed as decrease in parasitemia at 50 mg/kg, bid administered via oral gavage on day 21 to 34 post infection measured on day 34 by microscopic method; format: functional, organism-based
[4] = system: Trypanosoma brucei brucei; experiment: Antiparasitic activity against Trypanosoma brucei brucei TREU667 infected in mouse assessed as decrease in parasitemia at 50 mg/kg, bid administered via oral gavage on day 21 to 34 post infection measured on day 35 by microscopic method; format: functional, organism-based
[5] = system: Trypanosoma brucei brucei; experiment: Antiparasitic activity against Trypanosoma brucei brucei TREU667 infected in mouse assessed as decrease in parasitemia at 50 mg/kg, bid administered via oral gavage on day 21 to 34 post infection measured on day 36 by microscopic method; format: functional, organism-based
[6] = system: Trypanosoma brucei brucei; experiment: Antiparasitic activity against Trypanosoma brucei brucei TREU667 infected in mouse assessed as decrease in parasitemia at 50 mg/kg, bid administered via oral gavage on day 21 to 34 post infection measured on day 46 to 49 by microscopic method; format: functional, organism-based
[7] = system: Trypanosoma brucei brucei; experiment: Antiparasitic activity against Trypanosoma brucei brucei TREU667 infected in mouse assessed as decrease in parasitemia at 50 mg/kg, bid administered via oral gavage on day 21 to 34 post infection measured on day 41 to 42 by microscopic method; format: functional, organism-based
[8] = system: Trypanosoma brucei brucei; experiment: Antiparasitic activity against Trypanosoma brucei brucei TREU667 infected in mouse assessed as decrease in parasitemia at 50 mg/kg, bid administered via oral gavage on day 21 to 34 post infection measured on day 40 by microscopic method; format: functional, organism-based
[9] = system: Trypanosoma brucei brucei; experiment: Antiparasitic activity against Trypanosoma brucei brucei TREU667 infected in mouse assessed as decrease in parasitemia at 50 mg/kg, bid administered via oral gavage on day 21 to 34 post infection measured on day 37 by microscopic method; format: functional, organism-based
[10] = system: Trypanosoma brucei brucei; experiment: Antiparasitic activity against Trypanosoma brucei brucei TREU667 infected in mouse assessed as decrease in parasitemia at 50 mg/kg, bid administered via oral gavage on day 21 to 34 post infection measured on day 38 by microscopic method; format: functional, organism-based
[11] = system: Trypanosoma brucei brucei; experiment: Antiparasitic activity against Trypanosoma brucei brucei TREU667 infected in mouse assessed as decrease in parasitemia at 50 mg/kg, bid administered via oral gavage on day 21 to 34 post infection measured on day 39 by microscopic method; format: functional, organism-based
[12] = system: Trypanosoma brucei brucei; experiment: Antiparasitic activity against Trypanosoma brucei brucei TREU667 infected in mouse assessed as decrease in parasitemia at 50 mg/kg, bid administered via oral gavage on day 21 to 34 post infection measured on day 43 to 45 by microscopic method; format: functional, organism-based
[13] = system: Trypanosoma brucei brucei; experiment: Antiparasitic activity against Trypanosoma brucei brucei TREU667 infected in mouse assessed as decrease in parasitemia at 50 mg/kg, bid administered via oral gavage on day 21 to 34 post infection measured on day 50 to 51 by microscopic method; format: functional, organism-based
[14] = system: Trypanosoma brucei brucei; experiment: Antiparasitic activity against Trypanosoma brucei brucei TREU667 infected in mouse assessed as decrease in parasitemia at 50 mg/kg, bid administered via oral gavage on day 21 to 34 post infection measured on day 52 to 180 by microscopic method; format: functional, organism-based
[15] = Cytotoxicity against human CRL8155 cells assessed as growth inhibition after 48 hrs by Alamar blue assay; format: cell-based; details: crl8155, 48 h
[16] = system: HepG2; experiment: Cytotoxicity against human HepG2 cells assessed as growth inhibition after 48 hrs by Alamar blue assay; format: cell-based; details: hepg2, 48 h
[17] = biological target: Cytochrome P450 3A4 (Homo sapiens, UniProt P08684); experiment: Inhibition of human CYP3A4; format: ADME
[18] = system: Liver; experiment: Half life in human liver microsomes at 1.5 uM by LC-MS analysis; format: ADME, microsome
[19] = system: Liver; experiment: Half life in mouse liver microsomes at 1.5 uM by LC-MS analysis; format: ADME, microsome
[20] = Ratio of drug level in brain to plasma in mouse at 5 mg/kg, ip after 1 hr by LC-MS analysis; format: ADME, organism-based
[21] = Cmax in mouse at 50 mg/kg, po by LC-MS analysis; format: ADME, organism-based; set-up: dose 50 mg/kg, route oral; details: in vivo
[22] = AUC (0 to 8 hrs) in mouse at 50 mg/kg, po by LC-MS analysis; format: ADME, organism-based; set-up: dose 50 mg/kg, time < 8 hr, route oral; details: in vivo
[23] = system: Trypanosoma brucei rhodesiense; experiment: Antiparasitic activity against Trypanosoma brucei rhodesiense STIB900 infected in Swiss-Webster mouse assessed as cure rate at 50 mg/kg, bid administered via oral gavage from day 2 to 5 post infection measured after 60 days by microscopic method relative to control; format: functional
[24] = system: Trypanosoma brucei brucei; experiment: Antiparasitic activity against Trypanosoma brucei brucei TREU667 infected in mouse assessed as decrease in parasitemia at 10 mg/kg, ip administered as single dose on day 21 post infection measured on day 34 by microscopic method; format: functional, organism-based
[25] = system: Trypanosoma brucei brucei; experiment: Antiparasitic activity against Trypanosoma brucei brucei TREU667 infected in mouse assessed as decrease in parasitemia at 10 mg/kg, ip administered as single dose on day 21 post infection measured on day 35 by microscopic method; format: functional, organism-based
[26] = system: Trypanosoma brucei brucei; experiment: Antiparasitic activity against Trypanosoma brucei brucei TREU667 infected in mouse assessed as decrease in parasitemia at 10 mg/kg, ip administered as single dose on day 21 post infection measured on day 36 by microscopic method; format: functional, organism-based
[27] = system: Trypanosoma brucei brucei; experiment: Antiparasitic activity against Trypanosoma brucei brucei TREU667 infected in mouse assessed as decrease in parasitemia at 10 mg/kg, ip administered as single dose on day 21 post infection measured on day 37 by microscopic method; format: functional, organism-based
[28] = system: Trypanosoma brucei brucei; experiment: Antiparasitic activity against Trypanosoma brucei brucei TREU667 infected in mouse assessed as decrease in parasitemia at 10 mg/kg, ip administered as single dose on day 21 post infection measured on day 38 by microscopic method; format: functional, organism-based
[29] = system: Trypanosoma brucei brucei; experiment: Antiparasitic activity against Trypanosoma brucei brucei TREU667 infected in mouse assessed as decrease in parasitemia at 10 mg/kg, ip administered as single dose on day 21 post infection measured on day 39 by microscopic method; format: functional, organism-based
[30] = system: Trypanosoma brucei brucei; experiment: Antiparasitic activity against Trypanosoma brucei brucei TREU667 infected in mouse assessed as decrease in parasitemia at 10 mg/kg, ip administered as single dose on day 21 post infection measured on day 40 by microscopic method; format: functional, organism-based
[31] = system: Trypanosoma brucei brucei; experiment: Antiparasitic activity against Trypanosoma brucei brucei TREU667 infected in mouse assessed as decrease in parasitemia at 10 mg/kg, ip administered as single dose on day 21 post infection measured on day 41 to 42 by microscopic method; format: functional, organism-based
[32] = system: Trypanosoma brucei brucei; experiment: Antiparasitic activity against Trypanosoma brucei brucei TREU667 infected in mouse assessed as decrease in parasitemia at 10 mg/kg, ip administered as single dose on day 21 post infection measured on day 43 to 45 by microscopic method; format: functional, organism-based
[33] = system: Trypanosoma brucei brucei; experiment: Antiparasitic activity against Trypanosoma brucei brucei TREU667 infected in mouse assessed as decrease in parasitemia at 10 mg/kg, ip administered as single dose on day 21 post infection measured on day 50 to 51 by microscopic method; format: functional, organism-based
[34] = system: Trypanosoma brucei brucei; experiment: Antiparasitic activity against Trypanosoma brucei brucei TREU667 infected in mouse assessed as decrease in parasite levels in peripheries at 10 mg/kg, ip administered as single dose on day 21 post infection by microscopic method; format: functional, organism-based
[35] = system: Trypanosoma brucei brucei; experiment: Antiparasitic activity against Trypanosoma brucei brucei TREU667 infected in mouse assessed as decrease in parasite levels in brain at 10 mg/kg, ip administered as single dose on day 21 post infection by microscopic method; format: functional, organism-based
[36] = system: Trypanosoma brucei brucei; experiment: Antiparasitic activity against Trypanosoma brucei brucei BF427 assessed as growth inhibition at 32 times EC50 pretreated for 24 hrs followed by compound washout measured after 10 days by light microscopic method; format: functional
[37] = system: Trypanosoma brucei brucei; experiment: Antiparasitic activity against Trypanosoma brucei brucei BF427 assessed as growth inhibition at 64 times EC50 pretreated for 48 hrs followed by compound washout measured after 10 days by light microscopic method; format: functional
[38] = system: Trypanosoma brucei brucei; experiment: Antiparasitic activity against Trypanosoma brucei brucei BF427 assessed as growth inhibition at 64 times EC50 pretreated for 72 hrs followed by compound washout measured after 10 days by light microscopic method; format: functional
[39] = system: Trypanosoma brucei brucei; experiment: Antiparasitic activity against Trypanosoma brucei brucei BF427 assessed as growth inhibition at 16 times EC50 pretreated for 96 hrs followed by compound washout measured after 10 days by light microscopic method; format: functional

Chain of Cytochrome P450 3A4 (P08684 whole entry): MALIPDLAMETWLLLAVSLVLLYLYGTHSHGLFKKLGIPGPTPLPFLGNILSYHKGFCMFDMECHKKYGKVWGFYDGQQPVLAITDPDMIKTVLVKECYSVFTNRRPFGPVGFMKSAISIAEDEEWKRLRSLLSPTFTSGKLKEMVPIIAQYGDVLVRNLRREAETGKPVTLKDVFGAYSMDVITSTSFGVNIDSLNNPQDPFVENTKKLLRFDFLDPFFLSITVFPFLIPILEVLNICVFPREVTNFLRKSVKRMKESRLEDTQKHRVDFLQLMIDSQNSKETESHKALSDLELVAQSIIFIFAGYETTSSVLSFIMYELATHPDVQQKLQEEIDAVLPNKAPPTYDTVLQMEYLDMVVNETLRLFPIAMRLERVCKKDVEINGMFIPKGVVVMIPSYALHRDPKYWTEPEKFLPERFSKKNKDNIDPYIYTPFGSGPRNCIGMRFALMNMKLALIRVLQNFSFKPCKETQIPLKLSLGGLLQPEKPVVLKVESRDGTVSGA

Structure (SMILES) | EC50 [1] | CC50 [2] | Activity [3] | Activity [4] | Activity [5] | Activity [6] | CC50 [15] | CC50 [16] | t1/2 [18] | BPR [20] | Cmax [21] | AUC(0-t) at 8 h [22] | Activity [23] | further results
NCCN(C(=O)c1ccccc1F)c1ccc(Cl)cc1 | 3.9 µM | 104 µM | – | – | – | – | – | – | – | – | – | – | – | –
CC1(C)OB(O)c2cc(NC(=O)c3ccc(F)cc3C(F)(F)F)ccc21 | – | – | Active | Active | Active | Active | – | – | – | – | – | – | – | Activity [7]: Active; Activity [8]: Active; Activity [9]: Active; Activity [10]: Active; Activity [11]: Active; Activity [12]: Active; Activity [13]: Active; Activity [14]: Active
Cl.NCCN(C(=O)c1ccc(F)cc1C(F)(F)F)c1ccc(OCc2ccc(Cl)cc2)cc1 | 0.007 µM | – | Active | Active | Active | inactive | 3.67 µM | 7.53 µM | > 1 h | 0.38 | 4.39 µM | 26 µM·h | 67 - 80% | IC50 [17]: 0.01 µM; t1/2 [19]: > 1 h
COc1ccc(N(CCN)C(=O)c2ccc(Cl)cc2Cl)cc1 | > 6 µM | 56.1 µM | – | – | – | – | – | – | – | – | – | – | – | –
N=C(N)c1ccc(/N=N/Nc2ccc(C(=N)N)cc2)cc1 | – | – | – | – | – | – | – | – | – | – | – | – | – | Activity [24]: Active; Activity [25]: Active; Activity [26]: Active; Activity [27]: Active; Activity [28]: Active; Activity [29]: Active; Activity [30]: Active; Activity [31]: Active; Activity [32]: Active; Activity [33]: inactive; Activity [34]: Active; Activity [35]: inactive
Cc1cc(C)cc(COc2ccc(N(CCN)C(=O)c3cccnc3Cl)cc2)c1.Cl.Cl | 0.015 µM | – | – | – | – | – | 5.12 µM | 8.38 µM | 0.65 h | 0.06 | 2.07 µM | 10.9 µM·h | 67 - 80% | growth inhibition (GI) [36]: Active; growth inhibition (GI) [37]: Active; growth inhibition (GI) [38]: Active; growth inhibition (GI) [39]: Active
